Assay results as given in patent US10292394B2, “Herbicidal compounds” (Syngenta Participations AG, priority 2015, dated 2019).

Legend:
Test in all cases: Post-emergence efficacy, glasshouse pot test
Assay type in all cases: in vivo
Conditions in all cases: post-emergence application, evaluated after 13 days
[1] = tested on: Lolium perenne (LOLPE)
Protocol: (§1) B1 Post-Emergence Efficacy Seeds of a variety of test species are sown in standard soil in pots:—Solanum nigrum (SOLNI), Amaranthus retoflexus (AMARE), Setaria faberi (SETFA), Alopecurus myosuroides (ALOMY), Echinochloa crus-galli (ECHCG), Ipomoea hederacea (IPOHE), Lolium perenne (LOLPE). After 8 days cultivation (post-emergence) under controlled conditions in a glasshouse (at 24/16° C., day/night; 14 hours light; 65% humidity), the plants are sprayed with an aqueous spray solution derived from the formulation of the technical active ingredient in acetone/water (50:50) solution containing 0.5% Tween 20 (polyoxyethylene sorbitan monolaurate, CAS RN 9005-64-5). Compounds are applied at 1000 g/ha and 250 g/ha. The test plants are then grown in a glasshouse under controlled conditions in a glasshouse (at 24/16° C., day/night; 14 hours light; 65% humidity) and watered twice daily. After 13 days, the test is evaluated for the percentage damage caused to the plant. The biological activities are assessed on a five point scale (5=80-100%; 4=60-79%; 3=40-59%; 2=20-39%; 1=0-19%).

[2] = tested on: Ipomoea hederacea (IPOHE)
Protocol: as §1

[3] = tested on: Setaria faberi (SETFA)
Protocol: as §1

[4] = tested on: Amaranthus retoflexus (AMARE)
Protocol: as §1

[5] = tested on: Solanum nigrum (SOLNI)
Protocol: as §1

[6] = tested on: Echinochloa crus-galli (ECHCG)
Protocol: as §1

Row | SMILES | percentage damage caused to the plant, five point scale, LOLPE ([1]; 250 g/ha) | percentage damage caused to the plant, five point scale, LOLPE ([1]; 1000 g/ha) | percentage damage caused to the plant, five point scale, IPOHE ([2]; 250 g/ha) | percentage damage caused to the plant, five point scale, IPOHE ([2]; 1000 g/ha) | percentage damage caused to the plant, five point scale, SETFA ([3]; 250 g/ha) | percentage damage caused to the plant, five point scale, SETFA ([3]; 1000 g/ha) | percentage damage caused to the plant, five point scale, AMARE ([4]; 250 g/ha) | percentage damage caused to the plant, five point scale, AMARE ([4]; 1000 g/ha) | percentage damage caused to the plant, five point scale, SOLNI ([5]; 250 g/ha) | percentage damage caused to the plant, five point scale, SOLNI ([5]; 1000 g/ha) | percentage damage caused to the plant, five point scale, ECHCG ([6]; 250 g/ha) | percentage damage caused to the plant, five point scale, ECHCG ([6]; 1000 g/ha)
1 | C#CCn1c(=O)c(-c2c(Cl)ccc(Cl)c2OCc2cnc(Cl)s2)c(O)c2nccnc21 [Compound 9.19, 7-[3,6-dichloro-2-[(2-chlorothiazol-5-yl)methoxy]phenyl]-8-hydroxy-5-prop-2-ynyl-pyrido[2,3-b]pyrazin-6-one] | 5 (5=80-100%) | 5 (5=80-100%) | 5 (5=80-100%) | 5 (5=80-100%) | 5 (5=80-100%) | 5 (5=80-100%) | 5 (5=80-100%) | 5 (5=80-100%) | 5 (5=80-100%) | 5 (5=80-100%) | 5 (5=80-100%) | 5 (5=80-100%)
2 | O=c1c(-c2c(Cl)ccc(Cl)c2OCc2cnc(Cl)s2)c(O)c2cccnc2n1CC(F)F [Compound 3.19] | 4 (4=60-79%) | 5 (5=80-100%) | 5 (5=80-100%) | 5 (5=80-100%) | 4 (4=60-79%) | 5 (5=80-100%) | 5 (5=80-100%) | 5 (5=80-100%) | 5 (5=80-100%) | 5 (5=80-100%) | 3 (3=40-59%) | 4 (4=60-79%)
3 | C#CCn1c(=O)c(-c2c(Cl)ccc(Cl)c2OCc2cnc(Cl)s2)c(O)c2cccnc21 [Compound 1.19] | 5 (5=80-100%) | 5 (5=80-100%) | 5 (5=80-100%) | 5 (5=80-100%) | 4 (4=60-79%) | 5 (5=80-100%) | 4 (4=60-79%) | 5 (5=80-100%) | 5 (5=80-100%) | 5 (5=80-100%) | 3 (3=40-59%) | 5 (5=80-100%)
4 | COc1ccnc2c1c(O)c(-c1c(Cl)ccc(Cl)c1OCc1cnc(Cl)s1)c(=O)n2CC(F)F [Compound 19.19] | 4 (4=60-79%) | 5 (5=80-100%) | 5 (5=80-100%) | 5 (5=80-100%) | 5 (5=80-100%) | 5 (5=80-100%) | 5 (5=80-100%) | 5 (5=80-100%) | 5 (5=80-100%) | 5 (5=80-100%) | 5 (5=80-100%) | 5 (5=80-100%)
5 | C#CCn1c(=O)c(-c2c(Cl)ccc(Cl)c2OCc2cnc(Cl)s2)c(O)c2c(OC)ccnc21 [Compound 17.19] | 4 (4=60-79%) | 5 (5=80-100%) | 5 (5=80-100%) | 5 (5=80-100%) | 5 (5=80-100%) | 5 (5=80-100%) | 5 (5=80-100%) | 5 (5=80-100%) | 5 (5=80-100%) | 5 (5=80-100%) | 5 (5=80-100%) | 5 (5=80-100%)
6 | O=c1c(-c2c(Cl)ccc(Cl)c2OCc2cnc(Cl)s2)c(O)c2nccnc2n1CC(F)F [Compound 11.19] | 5 (5=80-100%) | 5 (5=80-100%) | 5 (5=80-100%) | 5 (5=80-100%) | 4 (4=60-79%) | 5 (5=80-100%) | 5 (5=80-100%) | 5 (5=80-100%) | 5 (5=80-100%) | 5 (5=80-100%) | 5 (5=80-100%) | 4 (4=60-79%)
